# Values joined by “and” are separate entries in the source; they are usually repeats but may differ in a detail not shown here. Equal values may be shown once.
# Assays:
# [1] = test system: purulent coated crural ulcers; conditions: purulent coated crural ulcers [Ref. 17]; cited from earlier work
# [2] = test system: methicillin-resistant Staphylococcus aureus; test: Bactericidal activity of NCT without and with heparin (CFU counts); type: cell-based
# Proteus mirabilis = test: as above; type: cell-based
# [3] = test system: Staphylococcus aureus, ATCC 25923; test: Bactericidal activity of NCT with heparin in human whole blood; type: cell-based; conditions: 37° C.
# Method: FIG. 10 presents a plot of bactericidal activity of 1% NCT with 125 IE/mL heparin in human blood against Staphylococcus aureus (ATCC 25923) at […] and 37° C. Mean values±standard error of the mean of three independent experiments. P<0.01 between NCT and control samples.
# Bacteria (Staphylococcus aureus, ATCC 25923 and Escherichia coli, ATCC 11229) grown in tryptic soy broth overnight were washed twice in saline and suspended in human whole blood containing 125 IE/mL heparin. Different volumes of a saline solution of NCT sodium salt were added to the suspension so that the test samples contained 10%, 25%, 50%, and 75% blood. In addition, 100% blood plus 125 IE/mL heparin was tested at which NCT was directly dissolved in blood. The final NCT concentration after mixing blood and NCT solutions was 1% in all samples. Controls contained 100% blood plus 125 IE/mL heparin and 10%, 25%, 50% and 75% blood, respectively, in saline, plus 125 IE/mL heparin without NCT. All of the solutions were incubated at 37° C. and pH 7.36-7.44 (the pH of blood). After 1, 3, 5, 10, 15, 30, 45 and 60 minutes, aliquots of 100 μL were removed and diluted tenfold or 100-fold in 0.6% sodium thiosulfate solution to inactivate the NCT. Aliquots (50 μL) of these dilutions were spread on tryptic soy agar plates. The plates were incubated at 37° C. and colony forming units of bacteria were counted after 24 and 48 hours. […]
# citrate blood [4] = test: International normalized ratio (INR); type: biochemical, human; conditions: Example 7; for International normalized ratio (INR): individual subjects 1-11; for International normalized ratio (INR), mean value: mean of 11 subjects
# Method: (§1) Whole blood was taken from 11 volunteers and enriched with trisodium citrate (0.3 mL of a 0.106 molar solution per 3 mL whole blood) (S-Monovette®, Sarstedt, Nümbrecht, Germany). Commercial coagulation tests (as described in Example 6) were performed with the following samples: […]
# [5] = test system: Staphylococcus aureus (ATCC 25923); test: Bactericidal activity of NCT without and with heparin (CFU counts); type: cell-based
# Method: FIG. 1 presents a plot of bactericidal activity of 1% NCT without and with 125 IE/mL heparin against Staphylococcus aureus ATCC 25923 at pH 7.1 and 37° C. Mean values standard error of the mean of three independent experiments. P>0.05 between NCT without and NCT with heparin.
# NCT was dissolved in 0.1 M phosphate buffer containing either 125 IE/mL heparin or no heparin. The final NCT concentration was 1%. Various bacterial species were grown in tryptic soy broth overnight, were washed twice in saline and then suspended in the NCT and NCT/heparin solutions. The species were Staphylococcus aureus (ATCC 25923), Escherichia coli (ATCC 11229), Streptococcus pyogenes, Staphylococcus epidermidis, Pseudomonas aeruginosa, Proteus mirabilis, and methicillin-resistant Staphylococcus aureus. Controls were performed with the foregoing bacterial species suspended in 0.1 M phosphate buffer without additives and in 0.1 M phosphate buffer containing 125 IE/mL heparin. All of the solutions were incubated at 37° C. and pH 7.1. After 1, 3, 5, 8, and 10 minutes, aliquots of 100 μL were removed and diluted 10-fold or 100-fold in 0.6% sodium thiosulfate solution to inactivate the NCT. Aliquots (50 μL) of these dilutions were spread on tryptic soy agar plates. The plates were incubated at 37° C. and colony forming units of bacteria were counted after 24 and 48 hours. […]
# citrate blood [6] = test: Activated partial thromboplastin time (aPTT), Pathromtin SL test; type: biochemical, human; conditions: for aPTT / aPTT (sec): Example 6, single volunteer; for Activated partial thromboplastin time (aPTT) / Activated partial thromboplastin time (aPTT), mean value: Example 7; for Activated partial thromboplastin time (aPTT): individual subjects 1-11; for Activated partial thromboplastin time (aPTT), mean value: mean of 11 subjects
# Method: Whole blood was taken from volunteers and enriched with trisodium citrate (0.3 mL of a 0.106 molar solution per 3 mL whole blood) (S-Monovette®, Sarstedt, Nümbrecht, Germany). Routine coagulation tests were performed on the following samples:
# The following commercial coagulation tests were performed according to the prescription of the manufacturer: prothrombin time (PT) was determined using Thromborel® S test (Dade Behring GmbH, Marburg, Germany); activated partial thromboplastin time (aPTT) was determined using Pathromtin* SL test (Dade Behring GmbH, Marburg, Germany); and thrombin time (TT) was determined using BC Thrombin Reagent test (Dade Behring GmbH, Marburg, Germany).
# Whole blood was taken from a single volunteer and enriched with trisodium citrate (0.3 mL of a 0.106 molar solution per 3 mL whole blood) (S-Monovette®, Sarstedt, Nümbrecht, Germany). Portions of 1.8 mL citrate blood were mixed with 0.2 mL NCT in 0.9% saline. The following final (after dilution in blood) NCT concentrations were tested separately: 1% (55 mM); 0.5% (27.5 mM); 0.25% (13.75 mM); 0.1% (5.5 mM); 0.05% (2.75 mM); 0.025% (1.375 mM); and 0.01% (0.55 mM). A control without NCT was performed in parallel. The following commercial coagulation tests were performed according to the prescription of the manufacturer: prothrombin time (PT) was determined using Thromborel® S test (Dade Behring GmbH, Marburg, Germany), activated partial thromboplastin time (aPTT) was determined using Pathromtin* SL test (Dade Behring GmbH, Marburg, Germany); thrombin time (TT) was determined using BC Thrombin Reagent test (Dade Behring GmbH, Marburg, Germany); and fibrinogen was determined using Multifibren* U test (Dade Behring GmbH, Marburg, Germany).
# as §1
# [7] = 0.1% NCT, virtually identical experiments
# [8] = 1% NCT, 125 IE/mL heparin, pH 7.1, 37° C., 1-10 min
smiles,measurement,setting,value
"O=S(=O)(O)CCNCl [NCT, N-chlorotaurine]",pain and toxicity versus chloramine T,[1],significantly less pain and was less toxic than chloramine T
same,influence of heparin on the killing of bacteria,[2]; [7],no statistically significant influence of heparin on the killing of bacteria
same,killing activity of NCT with vs without heparin,[2]; [8],no difference in the killing activity
same,influence of heparin on the killing of bacteria,Proteus mirabilis; [7],no statistically significant influence of heparin on the killing of bacteria
same,killing activity of NCT with vs without heparin,Proteus mirabilis; [8],no difference in the killing activity
same,bactericidal activity in blood,[3]; 1% NCT dissolved in 100% blood plus 125 IE/mL heparin,no significant bactericidal activity was detected
same,bactericidal activity in blood,"[3]; 1% NCT in 10%, 25%, 50% and 75% blood plus 125 IE/mL heparin",demonstrated bactericidal activity
same,International normalized ratio (INR),citrate blood [4]; 0.01% NCT,1.2 (5×) and 1.3 (3×) and 1.1 (3×)
same,"International normalized ratio (INR), mean value",citrate blood [4]; 0.01% NCT,1.2
same,International normalized ratio (INR),citrate blood [4]; 0.025% NCT,2.6 and 3.3 (2×) and 1.5 and 6 and 4.2 and 2.8 and 4.4 and 2 and 2.9 and 2.3
same,"International normalized ratio (INR), mean value",citrate blood [4]; 0.025% NCT,3.2
same,influence of heparin on the killing of bacteria,[5]; [7],no statistically significant influence of heparin on the killing of bacteria
same,killing activity of NCT with vs without heparin,[5]; [8],no difference in the killing activity
same,activated partial thromboplastin time,"citrate blood [6]; Example 5, 1% NCT final concentration in citrate blood",above the test limits
same,aPTT,citrate blood [6]; 0.01% (0.55 mM) NCT final,30.6 s
same,aPTT,citrate blood [6]; 0.025% (1.375 mM) NCT final,37.7 s
same,aPTT,citrate blood [6]; 0.05% (2.75 mM) NCT final,71.3 s
same,aPTT,citrate blood [6]; 0.1% (5.5 mM) NCT final,371.4 s
same,aPTT (sec),citrate blood [6]; 0.25% (13.75 mM) NCT final,>limit
same,aPTT (sec),citrate blood [6]; 0.5% (27.5 mM) NCT final,>limit
same,aPTT (sec),citrate blood [6]; 1% (55 mM) NCT final,>limit
same,Activated partial thromboplastin time (aPTT),citrate blood [6]; 0.01% NCT,39 sec (2×) and 41 sec and 32 sec and 47 sec and 37 sec (2×) and 35 sec and 40 sec and 36 sec and 31 sec
same,"Activated partial thromboplastin time (aPTT), mean value",citrate blood [6]; 0.01% NCT,37.6 s
same,Activated partial thromboplastin time (aPTT),citrate blood [6]; 0.025% NCT,93 sec and 113 sec and 49 sec and 238 sec and 142 sec and 129 sec and 91 sec (2×) and 167 sec and 70 sec and 71 sec
same,"Activated partial thromboplastin time (aPTT), mean value",citrate blood [6]; 0.025% NCT,114.0 s

# Reference: patent publication US20110091570A1, “Compositions and Devices for Antisepsis and Anticoagulation” (priority 2008, published 2011)
